Source: patent publication US20080139520A1, “Altering cholesterol and fat uptake by novel allosteric inhibitors of pancreatic phospholipase A2” (priority 2006, published 2008)

Experiments:
[1] = target: T1, PLA2 K87W/W3F (Sus scrofa, UniProt P00592, K109W/W25F); assay: Bile salt binding by Trp emission, K87W/W3F PLA2; design: species or system pig; conditions: read-out: KEB
T1 construct: made in house
Procedure: (§1) Fluorescence emission spectrum or time course of the intensity change from tryptophan or the resonance energy transfer probe TMA-DPH were measured in the ratio mode on SLM-Aminco AB2 in a 1 cm cuvette [31, 32] in 1.6 ml stirred buffer containing 1 or 2 μM PLA2 in 10 mM Tris, 5 mM CaCl2 and 20 mM NaCl at pH 8.0 and 24° C. The slit-widths were 4 nm with excitation at 280.
(§2) As shown in [45], the binding of decylsulfate to the R site is accompanied by a modest increase in the emission intensity from Trp-3. […] As summarized in Table 2, the value of KEB depends on the position of Trp, although Hill coefficient remains 1. […] Note that KEB for the EB complex of ΔPLA2 is about 7-fold larger than that for PLA2.

[2] = target: T2, PLA2 K53W/W3F (Sus scrofa, UniProt P00592, R75W/W25F); assay: Bile salt binding by Trp emission, K53W/W3F PLA2; design: species or system pig; conditions: read-out: KEB
T2 construct: made in house
Procedure: as §1, §2

[3] = target: T3, PLA2 K10W/W3F (Sus scrofa, UniProt P00592, K32W/W25F); assay: Bile salt binding by Trp emission, K10W/W3F PLA2; design: species or system pig; conditions: read-out: KEB
T3 construct: made in house
Procedure: as §1, §2

[4] = target: T4, PLA2 Δ62-66 (Sus scrofa, UniProt P00592, DEL84-88); assay: Bile salt binding by Trp emission, Δ62-66 PLA2; design: species or system pig
T4 construct: made in house
Procedure: as §1, §2

[5] = target: T5, PLA2 (Sus scrofa, UniProt P00592); assay: Quenching of RET signal from TMA-DPH bound to PLA2 by bile salts; assay type: binding, pig; conditions: 1 μM PLA2 and TMA-DPH, pH 8.0
T5 construct: made in house
Procedure: as §1

[6] = target: T6, (62-66)-loop deleted pig pancreatic IB ΔPLA2 (Sus scrofa, UniProt P00592, DEL84-88); assay: Hydrolysis of DMPC vesicles by (62-66)-loop deleted ΔPLA2 with added bile salt; assay type: biochemical
T6 construct: made in house
Procedure: (§3) Aqueous dispersion of phospholipid was sonicated in a bath type sonicator. Virtually transparent suspension was annealed for at least 4 hours at room temperature before use. Reaction progress for the PLA2 catalyzed hydrolysis of sonicated DMPC (1 mM) vesicles was measured by pH-stat titration (Radiometer) with 1 mM 2-aminopropanediol in 4 ml reaction buffer containing 5 mM CaCl2 for DMPC (or 0.5 mM for DMPM), 1 mM NaCl, and 0.1 mM EDTA at pH 8.0 and 24° C. in the nitrogen purged closed atmosphere. Reaction was initiated by adding 0.1 μg enzyme in 1-10 μl solution. The pH stat method was also used for monitoring the rate of hydrolysis of DMPM (0.4 mM) vesicles in the presence of polymyxin [27-29], or of the mixed-micelles of POPC with bile salts in 1:2 ratio [13, 30].

[7] = target: T7, PLA2 L19W/W3F (Sus scrofa, UniProt P00592, L41W/W25F); assay: Bile salt binding by Trp emission, L19W/W3F PLA2; design: species or system pig; conditions: read-out: KEB
T7 construct: made in house
Procedure: as §1, §2

[8] = target: T8, human pancreatic IB PLA2 (Homo sapiens, UniProt P04054); assay: Rate-lowering of hydrolysis of DMPC + 0.05 mole fraction cholate vesicles by human pancreatic PLA2; assay type: biochemical
T8 construct: gift of Dr. Suren Tatulian (Orlando, Fla.)
Excerpt: Independent support for selective binding of the rate lowering compounds to a regulatory site on PLA2 comes from the rate-lowering effect of such compounds on the hydrolysis of DMPC vesicles containing 0.05 mole fraction cholate.
Scores of other compounds in guggul were not active.

[9] = target: T8, human pancreatic IB PLA2; assay: Hydrolysis of DMPC vesicles by human IB PLA2 with added bile salt; assay type: biochemical; conditions: 1 mM DMPC
Procedure: as §3

T8 sequence (P04054 23-148): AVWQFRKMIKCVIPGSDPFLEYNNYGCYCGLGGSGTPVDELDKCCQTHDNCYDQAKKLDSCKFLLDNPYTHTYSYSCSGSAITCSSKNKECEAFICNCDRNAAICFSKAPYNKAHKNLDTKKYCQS
T4 sequence (P00592 with tags, fused parts or gaps DEL84-88): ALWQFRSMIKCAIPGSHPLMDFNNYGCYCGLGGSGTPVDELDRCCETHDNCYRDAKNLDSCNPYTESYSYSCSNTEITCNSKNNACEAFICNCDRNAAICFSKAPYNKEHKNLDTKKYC
T7 sequence (P00592 23-146 W25F/L41W): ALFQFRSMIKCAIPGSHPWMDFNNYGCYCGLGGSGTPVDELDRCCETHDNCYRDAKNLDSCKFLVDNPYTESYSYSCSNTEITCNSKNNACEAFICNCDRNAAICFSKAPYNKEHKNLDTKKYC
T5 sequence (P00592 23-146): as the sequence (P00592 23-146 W25F/L41W) above, with F3W, W19L counted along it
T3 sequence (P00592 23-146 W25F/K32W): as the sequence (P00592 23-146 W25F/L41W) above, with K10W, W19L counted along it
T1 sequence (P00592 23-146 W25F/K109W): as the sequence (P00592 23-146 W25F/L41W) above, with W19L, K87W counted along it
T6 sequence (P00592 with tags, fused parts or gaps DEL84-88): as the sequence (P00592 with tags, fused parts or gaps DEL84-88) above
T2 sequence (P00592 23-146 W25F/R75W): as the sequence (P00592 23-146 W25F/L41W) above, with W19L, R53W counted along it

C[C@H](CCC(=O)NCCS(=O)(=O)O)[C@H]1CC[C@H]2[C@@H]3[C@H](O)C[C@@H]4C[C@H](O)CC[C@]4(C)[C@H]3CC[C@]12C [TCDOC, taurochenodeoxycholate]
Kd [1]: 200 µM | Kd [2]: 15 µM | Kd [3]: 4 µM | Kd ([4]; Δ62-66, read-out: KEB): 41 µM | KEB for the EB complex of ΔPLA2 relative to PLA2 ([4]; ΔPLA2 versus PLA2): about 7 fold | efficacy to quench RET signal from TMA-DPH bound to PLA2 [5]: most effective | rate lowering effect with ΔPLA2 mutant [6]: not observed | Kd [7]: 3 µM | Relative Rate-lowering (%) Activity, hPLA2 ([8]; 0.03 mole fraction, DMPC + 0.05 mole fraction cholate): 90% | relative effectiveness in lowering the rate of hydrolysis by human PLA2 ([8]; DMPC vesicles containing 0.05 mole fraction cholate, FIG. 5B): more effective than ezetimibe | effect on rate of hydrolysis of DMPC vesicles by human pancreatic IB PLA2 [9]: virtually no rate increase
